target: T1, KPC-2 (Klebsiella pneumoniae, UniProt Q9F663); test: nitrocefin hydrolysis, spectrophotometric; Ki from IC50 by Cheng-Prusoff; type: biochemical
T1 construct: recombinant, 'full-length KPC-2 enzyme'
Description: nitrocefin hydrolysis, spectrophotometric; Ki from IC50 by Cheng-Prusoff on KPC-2

T1 sequence (Q9F663 25-293 limits assumed): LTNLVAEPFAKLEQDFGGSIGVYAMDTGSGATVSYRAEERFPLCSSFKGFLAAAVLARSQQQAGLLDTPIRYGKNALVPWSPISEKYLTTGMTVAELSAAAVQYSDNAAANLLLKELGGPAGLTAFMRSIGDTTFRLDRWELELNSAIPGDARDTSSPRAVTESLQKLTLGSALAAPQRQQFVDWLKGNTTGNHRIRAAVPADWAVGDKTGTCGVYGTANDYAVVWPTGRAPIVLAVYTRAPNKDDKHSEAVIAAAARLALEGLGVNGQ

Row | SMILES | Ki [µM]
1 | CCN(CC)c1ccc(CNn2cn[nH]c2=S)cc1 [1d, 4-((4-(diethylamino)benzyl)amino)-2,4-dihydro-3H-1,2,4-triazole-3-thione] | 263 ± 13
2 | S=c1[nH]ncn1NCc1ccc2c(c1)OCO2 [1f, 4-((benzo[d][1,3]dioxol-5-ylmethyl)amino)-2,4-dihydro-3H-1,2,4-triazole-3-thione] | 138 ± 3
3 | Sc1nncn1/N=C/c1ccc(Br)cc1 [2b, 4-((4-bromobenzylidene)amino)-2,4-dihydro-3H-1,2,4-triazole-3-thione] | 158 ± 7
4 | S=c1[nH]ncn1/N=C/c1c[nH]c2ccccc12 [2g, 4-(((1H-indol-3-yl)methylene)amino)-2,4-dihydro-3H-1,2,4-triazole-3-thione] | 139 ± 4

target: T2, IMP-1 (Pseudomonas aeruginosa, UniProt Q79MP6); test: as above; type: biochemical
T2 construct: gene blaIMP-1; codon-optimised wild type gene, pETite N-His SUMO Kan, E. coli Lemo21(DE3); His-SUMO cleaved by SUMO protease; IMAC and Superose 12
T2 sequence (Q79MP6 19-246 limits assumed): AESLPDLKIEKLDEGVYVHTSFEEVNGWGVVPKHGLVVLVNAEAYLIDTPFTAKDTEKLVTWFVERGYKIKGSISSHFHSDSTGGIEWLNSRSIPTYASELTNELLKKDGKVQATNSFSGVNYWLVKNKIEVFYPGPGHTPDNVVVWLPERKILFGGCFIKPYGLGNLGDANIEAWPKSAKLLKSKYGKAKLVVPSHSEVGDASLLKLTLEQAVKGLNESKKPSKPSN

Row | SMILES | Ki [µM]
5 | CCN(CC)c1ccc(CNn2cn[nH]c2=S)cc1 [1d, 4-((4-(diethylamino)benzyl)amino)-2,4-dihydro-3H-1,2,4-triazole-3-thione] | 173 ± 6
6 | S=c1[nH]ncn1NCc1ccc2c(c1)OCO2 [1f, 4-((benzo[d][1,3]dioxol-5-ylmethyl)amino)-2,4-dihydro-3H-1,2,4-triazole-3-thione] | 125 ± 5
7 | Sc1nncn1/N=C/c1ccc(Br)cc1 [2b, 4-((4-bromobenzylidene)amino)-2,4-dihydro-3H-1,2,4-triazole-3-thione] | 285 ± 13
8 | S=c1[nH]ncn1/N=C/c1c[nH]c2ccccc12 [2g, 4-(((1H-indol-3-yl)methylene)amino)-2,4-dihydro-3H-1,2,4-triazole-3-thione] | 104 ± 4

target: T3, VIM-1 (Pseudomonas aeruginosa, UniProt Q9XAY4); test: as above; type: biochemical
T3 construct: gene blaVIM; recombinant untagged, pET-24a(+) blaVIM-1 (pBPAQND2009), E. coli BL21(DE3); High Q and Superdex 75; zinc-supplemented buffers

Row | SMILES | Ki [µM]
9 | CCN(CC)c1ccc(CNn2cn[nH]c2=S)cc1 [1d, 4-((4-(diethylamino)benzyl)amino)-2,4-dihydro-3H-1,2,4-triazole-3-thione] | 224 ± 11
10 | S=c1[nH]ncn1NCc1ccc2c(c1)OCO2 [1f, 4-((benzo[d][1,3]dioxol-5-ylmethyl)amino)-2,4-dihydro-3H-1,2,4-triazole-3-thione] | 120 ± 4
11 | Sc1nncn1/N=C/c1ccc(Br)cc1 [2b, 4-((4-bromobenzylidene)amino)-2,4-dihydro-3H-1,2,4-triazole-3-thione] | 58 ± 2
12 | S=c1[nH]ncn1/N=C/c1c[nH]c2ccccc12 [2g, 4-(((1H-indol-3-yl)methylene)amino)-2,4-dihydro-3H-1,2,4-triazole-3-thione] | 95 ± 3

From article PMC7151704, “4-Amino-1,2,4-triazole-3-thione as a Promising Scaffold for the Inhibition of Serine and Metallo-β-Lactamases” (Pharmaceuticals, 2020)
